This note sets out measurements from patent publication US20010039291A1, “Compositions and methods of treatment for cancer or viral infections” (The Procter & Gamble Company, priority 1995, published 2001).

≈ marks a conversion by molar mass, not a printed value.

In one test the test system is Rhinovirus, type A-1. In words: In vitro screening for Rhinovirus. It is filed as cell-based. The note with it: cell line WI-38. From the text: The positive control was A-36683 of Abbot Company, (S,S)-1,2-bis(5-methoxy-2-benzimidazolyl)-1,2-ethanediol. […] (See Schleicher et al, Applied Microbiology, 23, No. 1, 113-116 (1972).
The subject of a further test is HT29 colon tumor cells. The experiment in a line: MTT cell viability test, colon tumor cells. The conditions noted are these: Homo sapiens, HT-29, 120 h, about 5 day incubation, read-out: EC-50 Result. Format: cell-based. In general terms: Tetrazolium dyes change colour on reduction, which living cells bring about.
A further test relates to MX1 breast cells. The experiment in a line: MTT cell viability test, breast tumor cells. It is filed as cell-based. The note with it: Homo sapiens, 120 h, about 5 day incubation, read-out: EC-50 Result.
In the next test the test system is A549 lung tumor cells. In words: MTT cell viability test, lung tumor cells. Format: cell-based. The conditions noted are these: Homo sapiens, 120 h, about 5 day incubation, read-out: EC-50 Result.
For test [1], the system named is Human influenza virus, strain AT2/Taiwan/1/64. In words: Anti-viral evaluation with human influenza virus in mice. Format: in vivo. The conditions noted are these: oral lavage, observed 21 days after challenge.
Test [2] concerns human tumor colony forming units. The experiment in a line: In vitro human tumor colony forming units test. Format: cell-based. The note with it: for effectiveness against tumor types / tumors with ≦50% survival: continuous exposure. As for the experimental part: Solid tumors removed by patients are minced into 2 to 5 mm fragments and immediately placed in McCoy's Medium 5A plus 10% heat inactivated newborn calf serum plus 1% penicillin/streptomycin. Within 4 hours, these solid tumors are mechanically disassociated with scissors, forced through No. 100 stainless steel mesh, through 25 gauge needles, and then washed with McCoy's medium as described above. Ascitic, pleural, pericardial fluids and bone marrow are obtained by standard techniques. The fluid or marrow is placed in sterile containers containing 10 units of preservative free heparin per ml. of malignant fluid or marrow. After centrifugation at 150×g for 10 minutes, the cells are harvested and washed with McCoy's medium plus 10% heat inactivated calf serum. The viability of cell suspensions is determined on a hemocytometer with trypan blue.
Cells to be cloned are suspended in 0.3% agar in enriched CMRL1066 supplemented with 15% heat inactivated horse serum, penicillin (100 units/ml), streptomycin (2 mg/ml), glutamine (2 mM), insulin (3 units/ml), asparagine (0.6 mg/ml), and HEPES buffer (2 mM). For the continuous exposure test each compound is added to the above mixture. Cells are placed in 35 mm petri dishes in a top layer of agar over an underlayer of agar to prevent growth of fibroblasts. Three plates are prepared for each data point. The plates are placed in a 37° C. incubator, and are removed on day 14 for counting of the number of colonies in each plate. The number of colonies (defined as 50 cells) formed in the 3 compound treated plates is compared to the number of colonies formed in the 3 control plates, and the percent colonies surviving at the concentration of compound can be estimated. Three positive control plates are used to determine survival rate. Orthosodium vanadate at 200 μg/ml is used as the positive control. If there is <30% colonies in the positive control when compared to the untreated control, the test is evaluated.

For `COc1ccc2nc([C@H](O)[C@@H](O)c3nc4ccc(OC)cc4[nH]3)[nH]c2c1` [A-36683, (S,S)-1,2-bis(5-methoxy-2-benzimidazolyl)-1,2-ethanediol, reference compound], the “therapeutic index (ratio of the toxic dose to the efficacious dose)” value with Rhinovirus, type A-1 is 1000-3200.
Turning to `CCCC1COC(Cn2cncn2)(c2ccc(Cl)cc2Cl)O1` (centres unmarked) [Propiconazole, 1-[2-(2,4-dichlorophenyl)4-propyl-1,3-dioxolan-2-ylmethyl]-1H-1,2,4-triazole], the EC50 was 0.0331 µg/mL (≈ 0.0967 µM) in the test on HT29 colon tumor cells, 0.0284 µg/mL (≈ 0.083 µM) in the test on MX1 breast cells and 0.113 µg/mL (≈ 0.33 µM) with A549 lung tumor cells. The mice survived in test [1] (175 mg/kg dose, saline control no mice survived) turned out to be 40%; in test [1] (350 mg/kg dose), 57%. Besides, the effective concentration in the test on Rhinovirus, type A-1 turned out to be 32 µg/mL. Moreover, in the test with Rhinovirus, type A-1, the “therapeutic index (ratio of the toxic dose to the efficacious dose)” value is on record as 1-3. In test [2] (0.5 μg/ml, continuous exposure test), the effectiveness against tumors result is reported as “not effective”. In addition, in test [2] (0.5 μg/ml, single dose experiment), the “tumors responding (effective/tested)” value is 0/1. For the same compound, the “effectiveness against tumor types” value in test [2] (5.0 μg/ml) is “effective against breast, head and neck, melanoma and ovarian cancers”; in test [2] (50.0 μg/ml), “effective against breast, colon, head and neck, lung (non-small cell), melanoma, ovarian, stomach, and uterine cancers”. The “tumors with ≦50% survival” value in test [2] (5.0 μg/ml) was 5 of 26; in test [2] (50.0 μg/ml), 18 of 25.
For the compound `COc1cccc2c1C(=O)c1c(O)c3c(c(O)c1C2=O)C[C@@](O)(C(=O)CO)C[C@@H]3O[C@H]1C[C@H](N)[C@H](O)[C@H](C)O1` [Adriamycin, reference compound], the EC50 with HT29 colon tumor cells stood at 0.00639 µg/mL (≈ 0.0118 µM); in the test on MX1 breast cells, 0.00078 µg/mL (≈ 0.00144 µM); in the test on A549 lung tumor cells, 0.00373 µg/mL (≈ 0.00686 µM).
